Earlier results, collected in patent US20230013403A1, “COMPOSITIONS COMPRISING HUMAN MILK OLIGOSACCHARIDES FOR USE IN A SUBJECT TO SUPPORT LANGUAGE DEVELOPMENT” (SOCIETE DES PRODUITS NESTLE S.A., priority 2019, published 2023).

Tested on: rodents
Settings: chronic oral administration

## 2′ fucosyllactose [2′FL]
  learning and working memory functions of treated animals: significantly better
